Measurements from EP0094815B1, “Oligopeptide prodrugs” (SMITHKLINE BECKMAN CORPORATION, priority 1982, dated 1983).

Key:
C. albicans = experiment: Minimum inhibitory concentration, two-fold broth dilution (Method B); format: cell-based, Candida albicans; conditions: C. albicans in Method B; text summary of MIC table (table is an image)
Procedure: (§1) The minimum inhibitory concentration of the test compound was determined by two-fold broth dilution tests in yeast carbon base medium, containing 200 pg/ml of sodium glutamate. The compounds were diluted from […] to 0.25 pg/ml and the test medium was inoculated with a suspension of C. albicans grown in the same medium for 15 hours at 37°. The final inoculum sizes in the tests were approximately 10^4 cfu/ml and 10^3 cfu/ml. The tubes were incubated at 37° for 24 and 48 hours and observed for inhibition.

Leucine Aminopeptidase = experiment: Enzyme catalyzed warhead release (Ellman colorimetric assay); format: biochemical, hog; conditions: pH 7.0; linear rate over the observation period (5 min)
Procedure: In each case upon addition of the enzyme, Leucine Aminopeptidase, the warhead was released. The release was maintained at a linear rate over the observation period (5 min). […] These observations are consistent with literature reports of the optimal pH necessary for the efficacy of this enzyme. These observations were obtained by colorimetric assay, which involves the reaction between a free sulfhydryl group and 5,5'-dithio-bis(2-nitrobenzoic acid), the Ellman reagent, to produce a yellow color as follows: [drawing 44] The peptide from Example 4 was dissolved in 4 mM of phosphate buffer solution (pH 7) containing the Ellman reagent at a level of 4 mg/ml to produce a 1 mM solution of the peptide. The resulting mixture was monitored using a spectrophotometer at a wavelength of 412 nm. To 1 ml of this solution was added 100 µg of hog kidney leucine aminopeptidase (Sigma) and the enzymatic hydrolysis was continuously monitored at 412 nm.

[1] = Stability of a-substituted glycine peptides in aqueous buffer (Ellman colorimetric assay); format: physicochemical; conditions: for half-life: 0.2 M phosphate buffer (pH 7.0), no enzyme, read-out: stable (t)
[2] = test system: representative fungal and bacterial organisms; experiment: Biological screen of the utility (antimicrobial) example; format: cell-based; conditions: product of first deblocking, later found not completely deblocked
Procedure: A prototypal compound, L-alanyl-2-(5-fluorouracil-2-yl)-L-glycine, was evaluated against representative fungal and bacterial organisms.
Candida albicans strains B―311 and BC 759, obtained from Smith Kline and French Laboratory Culture Collection were grown in a trypticase soy broth at 28° for 7 hours. The seeded plates, with this medium containing 1.5% agar, were prepared by inoculating 1 ml of the inoculum in 1 I of yeast-carbon base medium, containing 200 µg/ml of lysine or glutamate as a sole source of nitrogen.
as §1
A method similar to A above but using E. coli was used which employs a M-9 medium (basic salts with ammonium ion as the nitrogen source and glucose as the carbon source).

half-life [1] | SMILES | antifungal activity (C. albicans) | other results
 | C[C@H](N)C(=O)NC(C(=O)O)n1cc(F)c(=O)[nH]c1=O (mixture of isomers) [L-, DL, L-alanyl-2-(5-fluorouracil-1-yl)-D,L-glycine] | antifungal activity | 
> 83.3 h | C[C@H](N)C(=O)NC(SCCNc1cc(C(=O)O)nc(C(=O)O)c1)C(=O)O (stereo partly shown) [Example 4] |  | warhead release upon addition of the enzyme (Leucine Aminopeptidase): released; non-enzymatic warhead release ([1]; pH 7.5): no noticeable increases
 | C[C@H](N)C(=O)NC(NNS(=O)(=O)c1cc(C(=O)O)cc(C(=O)O)c1)C(=O)O (stereo partly drawn) [Example 12, L-alanyl-2-(3,5-dicarboxy-phenylsulfohydrazino)-D,L-glycine] |  | activity in the biological screen [2]: not active
> 83.3 h | C[C@H](N)C(=O)NC(Sc1ccccc1)C(=O)O (stereo partly drawn) [Example 13, L-alanyl-2-(thiophenyl)-D,L-glycine] |  | 
 | C[C@H](N)C(=O)NC(C(=O)O)n1cc(F)c(=O)[nH]c1=O (stereo partly drawn) [L-L, L-alanyl-2-(5-fluorouracil-2-yl)-L-glycine] | antifungal activity | 
